Here are results for four compounds from patent publication US6323187A, “Therapeutic dinucleotide and derivatives” (priority 1999, dated 2001).

The target in one series is P2Y4 (Homo sapiens, UniProt P51582). In words: Inositol phosphate assay, P2Y4 receptor. The series is classed as cell-based. The following applies: IA = no agonist activity at 30 μM. The procedure: (§1) The pharmaceutical utility of the compounds of this invention is indicated by the inositol phosphate assay for P2Y2 and other P2Y receptor activity. This widely used assay, as described in E. Lazarowski, et al., Brit. J. Pharm. 116, 1619-27 (1995), relies on the measurement of inositol phosphate formation as a measurement of activity of compounds activating receptors linked via G-proteins to phospholipase C.
(§2) The compounds of Formula I was tested for its ability to elicit P2Y1, P2Y2, P2Y4 and P2Y6 receptor activity using the inositol phosphate assay as described by E. Lazarowski, et al., Brit. J. Pharm. 116, 1619-27 (1995).

In the next series the target is T1, P2Y2 (Homo sapiens, UniProt P41231).
T1 construct: expressed in transfected cells
The series can be described thus: Inositol phosphate assay, P2Y2 receptor. The series is classed as cell-based. The following applies: IA = no agonist activity at 30 μM. On the procedure: as §1, §2

A further series deals with P2Y1. The series can be described thus: Inositol phosphate assay, P2Y1 receptor. The following applies: IA = no agonist activity at 30 μM. It is filed as cell-based. The procedure:
as §1, §2

For another series, the system named is P2Y6. In words: Inositol phosphate assay, P2Y6 receptor. It is filed as cell-based. The following applies: IA = no agonist activity at 30 μM. On the procedure:
as §1, §2

The subject of series [1] is human nasal epithelial cells. In words: Chloride secretion in human nasal airway cells (change in ISC). The series is classed as cell-based. The following applies: more potent than U2 P4; amiloride 100 μM present; apical addition. On the procedure: Airway epithelial cells were desegregated and isolated from freshly excised human nasal surgical specimens (Yankaskas, et al., Am. Rev. Respir. Dis. 132, 1281-1287 (1985)). Confluent monolayers were cultured on permeable collagen matrix supports in F-12 hormone-supplemented medium (Wu, et. al., Am. Rev. Respir. Dis. 132, 311-320 (1985)). Cells were incubated at 37° C. and grown to confluence. Development of transepithelial resistance was monitored to determine the formation of tight junctions between the cells. After formation of tight junctions, was confirmed, the matrix supports containing the cultures were mounted in modified Using chambers. […]
Polycarbonate Using chambers were milled to fit the plastic cups that supported the permeable collagen matrix on which the cells were grown. Bioelectric properties including ISC, transepithelial potential difference and resistance were monitored. Short-circuit current (ISC) was measured with a digital voltmeter (UNC Electronics, Chapel Hill, N.C.) and plotted on a strip-chart recorder. The open circuit potential was recorded periodically, and conductance was monitored in the voltage clamp mode by the current deflection in response to a 10-mV voltage pulse.
A stable baseline of ISC was recorded and amiloride (100 μM) was added to the solution bathing the apical surface to block sodium absorption. […] The change in ISC was recorded. […]

The subject of another series is sputum production. The following applies: normal healthy volunteers; background section; cited from earlier work.
Another series is described as follows: in vitro. The following applies: human, bronchial epithelial cells, pH 7.2.
The next series has as its system airway epithelial cells. The following applies: airway epithelial cells in vitro; S. Mason, et al. (1991); cited from earlier work.
A further series concerns P2Y2 receptor. The following applies: H. Brown, et al. (1991); cited from earlier work.
The test system of series [2] is human airway epithelial cells. The following applies: human airway epithelial cells in vitro; D. Drutz, et al. (1996); cited from earlier work.
For series [3], the system named is lung mucociliary clearance. The following applies: normal volunteers; K. Olivier, et al. (1996); cited from earlier work.
The subject of a further series is goblet cells. The following applies: in vitro; M. Lethem, et al. (1993); cited from earlier work.
The next series deals with Type II alveolar cells. The following applies: Gobran (1994); cited from earlier work.
The test system of the next series is cough clearance. The following applies: patients with PCD; P. Noone, et al. (1996); cited from earlier work.

T1 sequence (P41231 whole entry): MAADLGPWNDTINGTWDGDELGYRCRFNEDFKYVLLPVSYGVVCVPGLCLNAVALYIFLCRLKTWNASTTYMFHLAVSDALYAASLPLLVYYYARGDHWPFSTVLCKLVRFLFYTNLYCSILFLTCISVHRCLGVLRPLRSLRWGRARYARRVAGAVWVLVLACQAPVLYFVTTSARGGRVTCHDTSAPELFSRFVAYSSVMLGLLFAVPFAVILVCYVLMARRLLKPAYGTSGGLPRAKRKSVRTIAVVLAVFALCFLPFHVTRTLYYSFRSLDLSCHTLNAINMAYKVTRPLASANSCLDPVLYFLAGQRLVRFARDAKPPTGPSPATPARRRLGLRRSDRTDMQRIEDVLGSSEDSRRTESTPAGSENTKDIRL
Chain of P2Y4 (P51582 whole entry, species assumed): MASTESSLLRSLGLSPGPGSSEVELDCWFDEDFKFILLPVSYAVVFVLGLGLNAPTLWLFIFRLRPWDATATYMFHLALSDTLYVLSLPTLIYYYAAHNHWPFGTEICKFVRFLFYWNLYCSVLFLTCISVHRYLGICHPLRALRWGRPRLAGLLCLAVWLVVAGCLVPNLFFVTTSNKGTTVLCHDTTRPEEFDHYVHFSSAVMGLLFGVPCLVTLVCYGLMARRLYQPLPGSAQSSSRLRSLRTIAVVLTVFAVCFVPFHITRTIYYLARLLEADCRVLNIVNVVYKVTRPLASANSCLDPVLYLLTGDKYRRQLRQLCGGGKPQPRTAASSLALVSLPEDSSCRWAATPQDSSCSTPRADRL
Protocol for in vitro: Epithelial cells were grown as monolayers on an airliquid interface in ALI medium. Assays were conducted on fully differentiated cells in KRB-Ringer solution (pH 7.2) at 37° C. with 0.1 mM nucleotide substrate. Aliquots of airway surface liquid were removed at 5, 10, 15, 20, 40 and 60 minutes. The metabolism was stopped by boiling and filtering the aliquots, and the samples were analyzed by high performance liquid chromatography using the following conditions: C- 18 column with a 55 min gradient of 10-100 mM KH2 PO4 and constant 8 mM tetrabutyl ammonium hydrogen sulfate and 10% methanol).

Broadly, the EC50 is the concentration giving half of the maximal effect. The low end stands for higher potency in that assay, the high end for lower potency in that assay. Consider `Nc1ccn([C@@H]2O[C@H](COP(=O)(O)OP(=O)(O)OP(=O)(O)OP(=O)(O)OC[C@H]3O[C@@H](n4ccc(N)nc4=O)[C@H](O)[C@@H]3O)[C@@H](O)[C@H]2O)c(=O)n1` [C2 P4], for which the EC50 at P2Y4, on P2Y2, in the series with P2Y1 and with P2Y6 was over 30 µM each time.
`Nc1ccn([C@@H]2O[C@H](COP(=O)(O)OP(=O)(O)OP(=O)(O)OP(=O)(O)OC[C@H]3O[C@@H](n4ccc(=O)[nH]c4=O)[C@H](O)[C@@H]3O)[C@@H](O)[C@H]2O)c(=O)n1` [CP4 U, P^1-(cytidine 5'-)-P^4-(uridine 5'-)-tetraphosphate]: the EC50 is 0.65 µM at P2Y4, 0.45 µM at P2Y2, over 30 µM in the series with P2Y1 and 3.5 µM in the series on P2Y6. Besides, the “potency relative to U2 P4 in the chloride secretion assay” value in series [1] is listed as “approximately ten-fold”.
As to `O=c1ccn([C@@H]2O[C@H](COP(=O)(O)OP(=O)(O)OP(=O)(O)OP(=O)(O)OC[C@H]3O[C@@H](n4ccc(=O)[nH]c4=O)[C@H](O)[C@@H]3O)[C@@H](O)[C@H]2O)c(=O)[nH]1` [U2 P4, P^1,P^4 -Di(uridine 5'-)tetraphosphate], the sputum production result in the series with sputum production was “increase sputum production”. In addition, in “in vitro”, the metabolised at 1 h, 100 µM was found to be 40%.
With `O=c1ccn([C@@H]2O[C@H](COP(=O)(O)OP(=O)(O)OP(=O)(O)O)[C@@H](O)[C@H]2O)c(=O)[nH]1` [UTP, uridine 5'-triphosphate], the “Cl^- secretion” value in the series on airway epithelial cells was “increase Cl^- secretion”. The “intracellular Ca^++” value in the series with P2Y2 receptor was “increase intracellular Ca^++”. The compound further had a metabolised at 1 h, 100 µM in “in vitro” of 100%. For the same compound, the cilia beat frequency entry in series [2] was “increase cilia beat frequency”. In series [3], the lung mucociliary clearance result is listed as “improvement in lung mucociliary clearance” and the side-effects result is “without any significant side-effects”. Further, in the series with goblet cells, the “mucin secretion by goblet cells” value was “increase both the rate and total amount of mucin secretion”. Moreover, in the series on Type II alveolar cells, the “release of surfactant from Type II alveolar cells” value is “release of surfactant”. Also, the cough clearance entry in the series on cough clearance was “significantly enhances cough clearance”.
